In paper PMC11098465, “A comparative analysis of peptide-delivered antisense antibiotics using diverse nucleotide mimics” (RNA, 2024):
Where “and” joins values, the source holds several entries; their conditions need not be identical. Equal values may be shown once.

What was measured:
[1] = system: Cy5 5′-labeled acpP target RNA (40 nt, −20 to +20); assay: Microscale thermophoresis (MST) binding affinity; set-up: species or system Salmonella; details: for EC50 of binding to target mRNA by MST (in words): unconjugated ASO; for EC50: read-out: mRNA-binding affinity (EC50)
Source text: To further quantify the binding affinities of the ASOs to the target mRNA, we used MST, a sensitive technique that measures a temperature-induced change in the fluorescence of a substrate as a function of the concentration of a nonfluorescent ligand ([Moon et al. 2018]; [Zimmer et al. 2021]). MST allowed us to quantify target affinity by calculating EC50 values, the half maximal effective concentration of binding to target mRNA (Table 1; Supplemental Fig. S4). […] Both are known to adopt C3′-endo ribose pucker conformation, which enhances their binding affinity to target mRNA ([Julien et al. 2008]; [Pallan et al. 2012]).
For each binding experiment, Cy5 5′-labeled RNA (as described above) was diluted to 10 nM in buffer A (50 mM Tris-HCl pH 7.6, 250 mM KCl, 5 mM MgCl2, 1 mM DTT, 5% glycerol supplemented with 0.05% Tween 20). A series of 16 tubes with different ASO dilutions (500–0.015 nM) were prepared in buffer A. For measurements, each ASO dilution was mixed with one volume of labeled RNA, which led to a final concentration of 5 nM labeled RNA and 250–0.007 nM of ASOs. The reaction was mixed by pipetting and incubated for 30 min at RT in the dark. Capillary forces were used to load the samples into Monolith NT.115 Premium Capillaries; measurements were performed using a Monolith Pico instrument (NanoTemper Technologies Gmbh) at an ambient temperature of 25°C. Instrument parameters were adjusted to 5% LED power, medium MST power, and MST on-time of 2.5 s. An initial fluorescence scan was performed across the capillaries to determine sample quality, which was followed by 16 thermophoresis measurements. […] Data of two independent measurements were analyzed for the ΔFnorm value determined by the MO Affinity Analysis software (NanoTemper Technologies Gmbh). The fitting for EC50 values was done using the Hill equation within the MO Affinity Analysis software. Data are presented as the mean EC50 values of two independent experiments.

[2] = system: 10 nt long target mRNA (acpP, fully complementary 10mer RNA fragment); assay: Thermal UV melting curves of ASO:RNA duplexes; type: binding, Salmonella; details: unconjugated ASO and 10 nt target RNA, 2 µM each mixed 1:1; 100 mM NaCl, 10 mM phosphate, pH 7.0; UV 260 nm, 10-90°C at 0.5°C/min, five ramps; two-state fit
Description: Next, we assessed the melting temperatures of each ASO:RNA duplex across a temperature range of 10°C–90°C (Fig. 3A; Supplemental Fig. S3). In this experiment, we used a fully complementary 10mer RNA fragment instead of the 40 nt long target RNA sequence, because the longer target might form internal secondary structures that could interfere with the measurement of the melting temperature. […] This is in line with previous observations ([Freier and Altmann 1997]) and our EMSA results (Fig. 2). […] The melting temperature of RNA-F and RNA-MOE was around 56°C (Table 1).
Three hundred microliters of 10 nt long target mRNA (2 µM) was mixed with 300 µL of each of the ASOs (2 µM) in phosphate buffer (100 mM NaCl, 10 mM phosphate, pH 7.0). Thermal UV melting curves were recorded at Agilent Cary UV–Vis Multicell Peltier. Before measurement, the samples were overlaid with silicon oil to prevent evaporation during heating. Five temperature ramps with a heating/cooling rate of 0.5°C/min between 10°C and 90°C at 260 nm were collected. All the melting curves were plotted using OriginPro 2023, fit to a two-state transition model with upper and lower baselines to determine Tm as previously reported ([Dietzsch et al. 2022]).

Salmonella = Salmonella growth assay (MIC); type: cell-based, Salmonella enterica serovar Typhimurium strain SL1344; details: for Antibacterial activity (MIC): ASO conjugated to the KFF carrier peptide, ~10^5 cfu/mL in noncation-adjusted MHB, 37°C, OD600, highest concentration 10 µM; for Antibacterial activity (MIC) / Effect of KFF-ASO conjugates on Salmonella growth (in words): 24 h; for Effect of KFF-ASO conjugates on Salmonella growth (in words): up to 10 µM; for Effect of KFF-ASO conjugates on Salmonella growth (in words) / Bactericidal concentration: KFF conjugates; for Bactericidal concentration: spotting of ASO-treated bacterial samples at 24 h
Description: Next, we sought to compare the antibacterial efficacy of the ASOs upon delivery into bacterial cells with a KFF carrier peptide. Therefore, we measured the growth kinetics of Salmonella in the presence of the ASOs for 24 h (Fig. 4). Because we have previously shown that the KFF peptide has a minimum inhibitory concentration (MIC) of >10 µM ([Popella et al. 2021]), we choose 10 µM as a cutoff point in our experiments. […] Spotting of the ASO-treated bacterial samples at 24 h confirmed that PMO and PNA were bactericidal at 10 and 1.25 µM, respectively (Supplemental Fig. S6B).
An overnight bacterial cell culture was diluted 1:100 in fresh MHB and grown to OD600 0.5. The culture was then diluted to ∼10^5 cfu/mL in noncation-adjusted MHB. Subsequently, 190 µL bacterial solution was dispensed into a 96-well plate (Thermo Fisher Scientific) along with 10 µL of a 200 µM solution of the ASOs. Growth was monitored by measuring the OD at 600 nm every 20 min in a Synergy H1 plate reader (Biotek) with continuous double-orbital shaking (237 cpm) at 37°C for 24 h.

[3] = unconjugated ASO 250-0.007 nM, 5 nM Cy5 RNA, 50 mM Tris-HCl pH 7.6, 250 mM KCl, 5 mM MgCl2, 30 min RT, 25°C, Hill fit, mean ± SD, two independent experiments

In the case of “DNA-PTO: phosphorothioate-modified DNA 10mer ASO, sequence CTCATACTCT, targeting acpP −5 to +5 (DNA, all phosphorothioate, methylation of C not given here)”, the “mRNA-binding affinity (EC50)” value [1, 3] is reported as “Could not be determined”, the “Tm of ASO:mRNA complexes” value [2] is reported as 25.8 °C and 25.8 ± 0.7 °C and the “Antibacterial activity (MIC)” value (Salmonella) is reported as >10 µM. The “Effect of KFF-ASO conjugates on Salmonella growth (in words)” value (“Effect of KFF-ASO conjugates” below) (Salmonella) was “slight growth retardation was observed at 5 and 10 µM”.

“LNA: 2′–4′-locked RNA 10mer ASO, sequence CTCATACTCT, targeting acpP −5 to +5 (all LNA, backbone and methylation of C not given here)” was tested, and the “EC50 of binding to target mRNA by MST (in words)” value (from here on “EC50 of binding to target mRNA”) [1] was “upper picomolar range”, the EC50 [1, 3] was 0.3 ± 0.1 nM and the “Tm of ASO:mRNA complexes” value [2] was 87.4 °C and 87.4 ± 2 °C. For the same substance, the “Antibacterial activity (MIC)” value (Salmonella) was >10 µM and the “Effect of KFF-ASO conjugates” value (Salmonella) was “slight growth retardation was observed at 5 and 10 µM”.

For “PMO: phosphorodiamidate morpholino 10mer ASO, sequence CTCATACTCT, targeting acpP −5 to +5 (all phosphorodiamidate morpholino (PMO))”, the “EC50 of binding to target mRNA” value [1] was “lower-mid nanomolar range”, the EC50 [1, 3] was 5.9 ± 2.7 nM and the “Tm of ASO:mRNA complexes” value [2] was 41.8 °C and 41.8 ± 0.6 °C. For the same substance, the “Antibacterial activity (MIC)” value (Salmonella) was 10 µM and the Bactericidal concentration (Salmonella) was 10 µM.

For “PNA: peptide nucleic acid 10mer ASO, sequence CTCATACTCT, targeting acpP −5 to +5 (all peptide nucleic acid (PNA))”, the “EC50 of binding to target mRNA” value [1] was “upper picomolar range”, the EC50 [1, 3] was 0.4 ± 0.4 nM and the “Tm of ASO:mRNA complexes” value [2] was 44.3 °C and 44.3 ± 1.1 °C. The “Antibacterial activity (MIC)” value (Salmonella) was 1.25 µM and the Bactericidal concentration (Salmonella) was 1.25 µM.

For “RNA-F: 2′-fluorinated RNA 10mer ASO, sequence CTCATACTCT, targeting acpP −5 to +5 (all 2'-fluoro, backbone and T or U not given here)”, the “EC50 of binding to target mRNA” value [1] was “lower-mid nanomolar range”, the EC50 [1, 3] was 72.8 ± 36.2 nM and the “Antibacterial activity (MIC)” value (Salmonella) was >10 µM. The “Effect of KFF-ASO conjugates” value (Salmonella) was “slight growth retardation was observed at 5 and 10 µM”.

With “RNA-MOE: 2′-methoxyethylated RNA 10mer ASO, sequence CTCATACTCT, targeting acpP −5 to +5 (all 2'-MOE, backbone and methylation of C not given here)” the “EC50 of binding to target mRNA” value [1] was “upper picomolar range”, the EC50 [1, 3] was 0.3 ± 0.2 nM and the “Antibacterial activity (MIC)” value (Salmonella) was >10 µM. For the same substance, the “Effect of KFF-ASO conjugates” value (Salmonella) was “slight growth retardation was observed at 5 and 10 µM”.

“RNA-OMe: 2′-methylated RNA 10mer ASO, sequence CTCATACTCT, targeting acpP −5 to +5 (all 2'-O-methyl, backbone and T or U not given here)” was tested, and the “EC50 of binding to target mRNA” value [1] was “lower-mid nanomolar range”, the EC50 [1, 3] was 4 ± 0.2 nM and the “Tm of ASO:mRNA complexes” value [2] was 48.3 °C and 48.3 ± 0.8 °C. For the same substance, the “Antibacterial activity (MIC)” value (Salmonella) was >10 µM and the “Effect of KFF-ASO conjugates” value (Salmonella) was “lacked any antibacterial activity”.
